# Tested on: human colon cancer cell strain colon 38
# Assay: Anti-tumor effect with 5-fluorouracil in human cancer xenograft tumor animal model
# Format: in vivo
# Conditions: after 4 weeks
# Text: According to methods described in “Methodology in Pharmacological Research of Traditional Chinese Medicine” (People's Medical Publishing House), test the anti-tumor effects of Formula A, B, C, D traditional Chinese medicine composition prepared from Embodiment 1-4 along with chemotherapy drugs (5-fluorouracil) for human cancer xenograft tumor animal model. 5-fluorouracil (fu) is broad spectrum anti-tumor medicine, it is mainly used to treat digestive tract tumor, commonly seen adverse reactions include nausea, reduced appetite or vomit, abdomen discomfort or diarrhea. About the test method, use human colon cancer cell strain colon 38 to inoculate subcutaneously in 18-23 g mouse, 14 days after the inoculation, respectively ingest Formula A, B, C, D traditional Chinese medicine composition prepared from Embodiment 1-4 into the stomach of each group of animals, the dosage is 500 mg/kg; 0.5-1 hour after stomach ingestion, inject 5-fluorouracil into abdomen, the dosage is 30 mg/kg. Execute stomach ingestion and drug injection twice each week, totaling 4 weeks.
structure (smiles),measurement,setting,value
"O=c1[nH]cc(F)c(=O)[nH]1 [fu, 5-fluorouracil]",Average tumor weight,"formula 500 mg/kg into stomach, fu 30 mg/kg into abdomen, twice each week",0.42 ± 0.11 g
same,Death number,of 10 supplied mice,5
same,Tumor inhibition rate (%),versus CK group's average tumor weight,64%
